“And” between values parts separate entries of the source, which are not always exact repeats. Identical values can stand only once.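 Method: 48-hour compound exposure of cells in 96-well plates, five concentrations, linear interpolation of endpoints. GI50 is the concentration that inhibits growth by half. TGI denotes the concentration required for complete inhibition of growth.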
Assays:
Test in all cases: NCI-60 cell line screen, 48 h
[1] = test system: CCRF-CEM leukemia
[2] = test system: EKVX NSCLC
[3] = test system: HL-60(TB) leukemia
[4] = test system: HOP-62 NSCLC
[5] = test system: LOX IMVI melanoma
[6] = test system: M14 melanoma
[7] = test system: MOLT-4 leukemia
[8] = test system: NCI/ADR-RES ovarian
[9] = test system: RPMI-8226 leukemia
[10] = test system: U251 CNS

Row | Compound | GI50 [1] | TGI [1] | GI50 [2] | TGI [2] | GI50 [3] | TGI [3] | GI50 [4] | TGI [4] | GI50 [5] | TGI [5] | GI50 [6] | TGI [6] | GI50 [7] | TGI [7] | GI50 [8] | TGI [8] | GI50 [9] | TGI [9] | GI50 [10] | TGI [10]
1 | COC(=O)c1ccc2c(C(=Nc3ccc(N(C)C(=O)CN4CCN(C)CC4)cc3)c3ccccc3)c(O)[nH]c2c1 | 2.56 µM and 2.81 µM | 16.7 µM and > 100 µM | 10.6 µM and 49.6 µM | > 100 µM | 9.41 µM and 9.59 µM | 32.3 µM and 32.1 µM | 1.36 µM and 2.32 µM | 12.2 µM and > 100 µM | 1.24 µM and 1.28 µM | 3.09 µM and 2.75 µM | 1.75 µM and 1.98 µM | 3.56 µM and 3.98 µM | 2.21 µM and 2.74 µM | 22.1 µM and > 100 µM | 14.4 µM and > 32.7 µM | > 100 µM | 2.73 µM and 5.97 µM | 9.86 µM and 20.8 µM | 1.44 µM and 1.77 µM | –
2 | CCOC(=O)c1cc(-c2ccccc2)[nH]c1N/N=C/c1c(Cl)cccc1Cl | 2.3 µM | 13.5 µM | 5.96 µM | > 100 µM | 0.484 µM | 5.13 µM | 2.37 µM | 41.4 µM | 3.05 µM | > 100 µM | 1.71 µM | 25.3 µM | 4.24 µM | 24.3 µM | 0.509 µM | 14.6 µM | 2.11 µM | 11.3 µM | 1.25 µM | > 60.4 µM
3 | O=c1[nH]c(SCc2ccccc2[N+](=O)[O-])nc2nc[nH]c12 | > 100 µM and 29.6 µM | > 100 µM | – | > 100 µM | – | > 100 µM | – | > 100 µM | – | > 100 µM | – | > 100 µM | – | > 100 µM | – | > 100 µM | – | > 100 µM | – | > 100 µM
4 | CNCCNc1nc2ccccc2c2c(=O)c3cccc(C)c3sc12 | 1.28 µM | 3.85 µM | 2.73 µM | 9.87 µM | 1.06 µM | 2.2 µM | 1.36 µM | 8.81 µM | 0.791 µM | 1.49 µM | 0.853 µM | 1.7 µM | 1.28 µM | 3.42 µM | 1.76 µM | 7.35 µM | 1.16 µM | 2.96 µM | 0.968 µM | 2.25 µM
5 | CCCCCCSc1nc(COC(=O)NC)c(COC(=O)NC)n1C | – | > 100 µM | – | > 100 µM | – | > 100 µM | – | > 100 µM | – | > 100 µM | – | > 100 µM | – | > 100 µM | – | > 100 µM | – | > 100 µM | – | > 100 µM
6 | Fc1ccc(-c2c(-c3ccncc3)[nH]c3nccnc23)cc1 | 24.6 µM | > 25 µM | – | – | 16.3 µM | > 25 µM | > 15.3 µM | > 25 µM | 11.1 µM | > 25 µM | > 18.7 µM | > 25 µM | > 25 µM | > 25 µM | 16.1 µM | > 25 µM | > 25 µM | > 25 µM | 12.5 µM | > 25 µM
7 | Cc1c(O)c(Br)c(C)c(O)c1Br (tested in a mixture with another compound) | – | 0.807 µM | – | – | – | 3.22 µM | – | 40.3 µM | – | 3.44 µM | – | 3.1 µM | – | 3.09 µM | – | > 100 µM | – | 6.06 µM | – | 24.4 µM
8 | Cn1cc(C2=C(c3c(S(C)=O)n(C)c4ccccc34)C(=O)NC2=O)c2ccccc21 (stereo not given) | 7.19 µM | > 25 µM | – | – | 5.39 µM | 17.7 µM | 8.34 µM | > 25 µM | 13.7 µM | > 25 µM | 7.56 µM | > 25 µM | 9.4 µM | > 25 µM | 9.19 µM | > 25 µM | 12.7 µM | > 25 µM | 8.64 µM | > 25 µM

Reference: PubChem BioAssay (NCI)
